Source: patent US12459931B2, “Benzothiophene derivative regulator, preparation method therefor and use thereof” (Shanghai Hansoh Biomedical Co., Ltd., priority 2019, dated 2025)

Columns and labels:
[1] = Stability assay in liver microsome in vitro; format: in vitro ADME, Mouse
Description: IV. Stability Assay in Liver Microsome In Vitro
To evaluate the metabolic stability of the compounds of the present invention in liver microsome in vitro.
Formulation of the working solution of the compound: 2 μL of the stock solution of the compound was added to 998 μL of phosphate buffer, and the final concentration was 20 μM.
Formulation of the working solution of the control compound (7-hydroxycoumarin): The formulation was consistent with that of the compound. • 3.2. Formulation of the working solution of liver microsome
78.1 μL of 20 mg/mL microsome was diluted to 2.5 mL with 100 mM phosphate buffer and mixed well, and the final concentration was 0.625 mg/mL. • 3.3. Formulation of NADPH and UDPGA
33.3 mg of NADPH and 25.8 mg of UDPGA were weighed respectively, followed by the addition of 2 mL of 100 mM phosphate buffer. The final concentrations were 20 mM. • 3.4. Formulation of the channel-forming reagent (Alamethicin)
1 mg of Alamethicin was weighed, to which 200 μL of DMSO was added to obtain a 5 mg/mL solution. 10 μL of this solution was added to 990 μL of phosphate buffer (pH 7.4), and the final concentration was 50 μg/mL. • 3.5. Formulation of the reaction stop solution
Stop solution: Cold acetonitrile containing 100 ng/mL labetalol hydrochloride and 400 ng/mL tolbutamide was used as internal standards, and stored in a refrigerator at 2 to 8° C. • 3.6. Incubation procedure
400 μL of the formulated liver microsome, 25 μL of the working solution of the compound […] and 25 μL of Alamethicin (50 μg/mL) were added to a 96-well plate successively, which was then pre-incubated at 37° C. for 10 min. 50 μL of the formulated NADPH/UDPGA was added to initiate the reaction, and the plate was incubated at 37° C. The total volume of the reaction system was 500 μL. The final contents of the components were as follows:
[…] The resulting sample was centrifuged at 4000 g for 10 min, and the supernatant was collected for LC-MS/MS analysis.

D3 receptor = D3 receptor (Homo sapiens (Human), UniProt P35462); assay: Effect on cAMP content in cells stably expressing D3 receptors (CHO-D3); format: cell-based; conditions: forskolin stimulated, activation
Description: To determine the activation effect of the compounds on D3 receptor.
3. The experimental buffer (1*HBSS, 0.1% BSA, 20 mM HEPES and 500 μM IBMX) was prepared. The compound was diluted with the buffer. 2.5 μL of the compound solution was added to each well, and the plate was incubated at 37° C. for 10 minutes. The forskolin was diluted to 8 μM (8*) with the experimental buffer. […] The reaction plate was centrifuged at 200 g for 30 s at room temperature, and left to stand at 25° C. for 1 h. Data was collected using Envision.

5-HT2A receptor = 5-HT2A receptor (Homo sapiens (Human), UniProt P28223); assay: Effect on calcium ion mobility in cells stably expressing 5-HT2A receptors (Flp-In-CHO-5HT2A, FLIPR); format: cell-based; conditions: Flp-In-CHO-5HT2A cells, 5HT as agonist
Description: To determine the inhibitory effect of the compounds on 5-HT2A receptor.
Probenecid and BSA were added fresh on the day of the experiment.
The calcium signal values were determined by FLIPR. […] The percent inhibition rate and ten-point concentration data were fitted to the parametric nonlinear logistic equation by using GraphPad prism to calculate the IC50 values of the compound.

Rats F344 = assay: Pharmacodynamic model of active escape experiment in rats; format: in vivo; conditions: oral, dose 1 mg/kg, one hour before the test
Description: V. Pharmacodynamic Model of Active Escape Experiment in Rats
To evaluate the anti-schizophrenic effect of the compounds using the pharmacodynamic model of the active escape experiment in rats.
4. Formulation of the Vehicle and Compounds: • 4.1 Vehicle (0.5% CMC-Na+1% Tween80)
A certain mass (such as 1.0 g) of CMC-Na was weighed into a glass bottle, a certain volume (such as 200 mL) of purified water was added, and the resulting mixture was stirred to disperse evenly. 1% (v/v) Tween 80 was added according to the solution volume, and the resulting mixture was stirred overnight to obtain a homogeneous clear solution, which was stored at 2 to 8° C. for later use. • 4.2 Formulation of the compounds: […]
A formula amount of the compound was weighed, followed by the addition of a formula volume of 0.5% CMC-Na+1% Tween 80 solution. The compound solution was formulated before the administration, stored at 2 to 8° C., and used within 4 days.
The day before the compound screening test, a baseline test was performed. The test procedure was the same as 5.1.1 to 5.1.3, and the number of the baseline test was 20. The animals whose number of avoids reached 16 (80%) were grouped according to the number of avoids, 10 animals per group. The first group was administered with the vehicle orally, and the other groups were administered with the corresponding test compounds according to the experimental design. • 5.3 Compound screening test
The compound was administered orally (5 mL/kg) one hour before the test;
The test procedure was the same as 5.1.1 to 5.1.4, and the number of the test was 20.
The following data was collected by the software for data analysis: • Number of avoids of the animal; • Number of escape failures of the animal; • Escape latency of the animal;
All measurement data were expressed as mean±standard error (Mean±SEM), and analyzed by Graphpad 6 statistical software. The difference was considered to be significant when p<0.05.

D3 receptor, sequence (P35462 whole entry): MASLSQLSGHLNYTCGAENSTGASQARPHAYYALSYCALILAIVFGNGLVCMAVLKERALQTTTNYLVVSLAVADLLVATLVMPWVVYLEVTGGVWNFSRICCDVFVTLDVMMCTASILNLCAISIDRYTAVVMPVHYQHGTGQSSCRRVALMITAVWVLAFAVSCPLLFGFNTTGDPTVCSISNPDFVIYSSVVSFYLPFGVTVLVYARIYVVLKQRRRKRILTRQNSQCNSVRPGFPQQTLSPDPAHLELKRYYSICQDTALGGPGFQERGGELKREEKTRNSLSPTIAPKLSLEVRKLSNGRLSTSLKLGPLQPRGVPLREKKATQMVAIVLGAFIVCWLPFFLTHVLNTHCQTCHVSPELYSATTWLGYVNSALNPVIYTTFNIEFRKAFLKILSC
5-HT2A receptor, sequence (P28223 whole entry): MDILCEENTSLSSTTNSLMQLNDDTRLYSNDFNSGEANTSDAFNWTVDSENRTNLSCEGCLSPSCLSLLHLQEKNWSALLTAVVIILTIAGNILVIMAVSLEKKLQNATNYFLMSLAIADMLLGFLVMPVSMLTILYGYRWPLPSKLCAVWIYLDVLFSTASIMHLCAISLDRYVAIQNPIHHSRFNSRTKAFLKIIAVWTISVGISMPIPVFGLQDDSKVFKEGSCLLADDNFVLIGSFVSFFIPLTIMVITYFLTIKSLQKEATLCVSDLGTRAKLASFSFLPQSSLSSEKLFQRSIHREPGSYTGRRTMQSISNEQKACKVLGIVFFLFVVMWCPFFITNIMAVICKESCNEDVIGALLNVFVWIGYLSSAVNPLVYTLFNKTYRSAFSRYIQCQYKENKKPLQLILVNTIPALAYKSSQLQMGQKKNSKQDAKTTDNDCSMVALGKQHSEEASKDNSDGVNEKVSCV

Row | half-life at 1 μM ([1]; CD-1, liver microsomes, pH 7.4, Mouse liver microsome 0.5 mg/mL, compound 1 μM, NADPH/UDPGA, read-out: Half life (t1/2)) | microsomal CLint at 1 μM ([1]; CD-1, liver microsomes, pH 7.4, Mouse liver microsome, note: Slow <8.8, Rapid >48.0, read-out: Intrinsic clearance rate (CLint)) | Remaining (%, 120 min) ([1]; Mouse liver microsome, 120 min) | SMILES | EC50 (D3 receptor) | IC50 (5-HT2A receptor) | CAR value (Rats F344) | EF (Rats F344)
1 | 2.72 h | 21.3 µL/min/mg | 80.6% | CC(C)(O)C(=O)N[C@H]1CC[C@H](CCN2CCN(c3cccc4sccc34)CC2)CC1 [Example 41, N-(Trans-4-(2-(4-(benzo[b]thiophen-4-yl)piperazin-1-yl)ethyl)cyclohexyl)-2-hydroxy-2-methylpropanamide] |  |  |  | 
2 |  |  |  | O=C(N[C@H]1CC[C@H](CCN2CCN(c3cccc4sccc34)CC2)CC1)C1(O)CC1 [Example 42, N-(Trans-4-(2-(4-(benzo[b]thiophen-4-yl)piperazin-1-yl)ethyl)cyclohexyl)-1-hydroxycyclopropane-1-carboxamide] | 1.1 nM | 3.42 nM | 46.5% | 0%
